The results in this text go back to patent US4643987A, “Modified glycopeptides” (Eli Lilly and Company, priority 1985, dated 1987).

In assay [1] the test system is Staphylococcus aureus NRRL B313. Kind of assay: agar-dilution MIC. It counts as cell-based.
In assay [2] the test system is Staphylococcus aureus V41. In words: agar-dilution MIC. Format: cell-based.
Assay [3] deals with Staphylococcus aureus X400. In words: agar-dilution MIC. It counts as cell-based.
Assay [4] relates to Staphylococcus aureus S13E. It counts as cell-based. The settings on record: agar dilution.
The test system of assay [5] is Staphylococcus epidermidis EP11. Kind of assay: agar-dilution MIC. It counts as cell-based.
Assay [6] deals with Staphylococcus epidermidis 222. In words: agar-dilution MIC. It counts as cell-based.
Assay [7] relates to Streptococcus pyrogenes C203. Kind of assay: agar-dilution MIC. Format: cell-based.
Assay [8] relates to Streptococcus pneumoniae Park 1. It counts as cell-based. As to conditions: agar dilution.
Assay [9] has as its system Streptococcus faecium ATCC 9790. Kind of assay: agar-dilution MIC. It counts as cell-based.
Assay [10] has as its system Streptococcus sp. group D 2041. Kind of assay: agar-dilution MIC. Format: cell-based.
Assay [11] has as its system Haemophilus influenzae C.L. In words: agar-dilution MIC. Format: cell-based.
For assay [12], the system named is Haemophilus influenzae 76. In words: agar-dilution MIC. It counts as cell-based.
The test system of another assay is Staphylococcus aureus. In words: experimental bacterial infection in mice, ED50. Format: in vivo. As to conditions: two doses, subcutaneously. On the procedure:
(§1) Some of the compounds of this invention have also shown in vivo antimicrobial activity against experimental bacterial infections. When two doses of test compound were administered to mice in experimental infections, the activity observed was measured as an ED50 value [effective dose in mg/kg to protect 50% of the test animals: see Warren Wick, et al., J. Bacteriol. 81, 233-235 (1961)].

A further assay relates to Streptococcus pneumoniae. Kind of assay: experimental bacterial infection in mice, ED50. Format: in vivo. The settings on record: two doses, subcutaneously. On the procedure:
as §1

A further assay concerns Streptococcus pyogenes. Kind of assay: experimental bacterial infection in mice, ED50. It counts as in vivo. As to conditions: two doses, subcutaneously. The protocol: as §1

In brackets after ≈: the same amount, converted by molar mass.

Regarding `CCCCCCCCOc1ccc(C(=O)N[C@@]2(C)C[C@H](O[C@H]3[C@H](Oc4c5cc6cc4Oc4ccc(cc4Cl)[C@@H](O)[C@@H](NC(=O)[C@@H](CC(C)C)NC)C(=O)N[C@@H](CC(N)=O)C(=O)N[C@H]6C(=O)N[C@H]4C(=O)N[C@H](C(=O)N[C@H](C(=O)O)c6cc(O)cc(O)c6-c6cc4ccc6O)[C@H](O)c4ccc(c(Cl)c4)O5)O[C@H](CO)[C@@H](O)[C@@H]3O)O[C@@H](C)[C@H]2O)cc1` [Compound 1, N^van --[4-(n-octyloxy)benzoyl]vancomycin], the MIC in assay [1] came to 1 µg/mL (≈ 0.595 µM); in assay [2], 1 µg/mL (≈ 0.595 µM); in assay [3], 2 µg/mL (≈ 1.19 µM); in assay [4] it was 1 µg/mL (≈ 0.595 µM); in [5] it was 16 µg/mL (≈ 9.51 µM); in assay [6], 4 µg/mL (≈ 2.38 µM). Also, the MIC in assay [7] was 2 µg/mL (≈ 1.19 µM); in [8], 2 µg/mL (≈ 1.19 µM); in assay [9] it was 0.5 µg/mL (≈ 0.297 µM); in [10] it was 1 µg/mL (≈ 0.595 µM); in assay [11], “-- (-- = not active at 128 mcg/ml)”; in assay [12] it was “-- (-- = not active at 128 mcg/ml)”.
In the case of `CCCCCCCCc1ccc(C(=O)N[C@@]2(C)C[C@H](O[C@H]3[C@H](Oc4c5cc6cc4Oc4ccc(cc4Cl)[C@@H](O)[C@@H](NC(=O)[C@@H](CC(C)C)NC)C(=O)N[C@@H](CC(N)=O)C(=O)N[C@H]6C(=O)N[C@H]4C(=O)N[C@H](C(=O)N[C@H](C(=O)O)c6cc(O)cc(O)c6-c6cc4ccc6O)[C@H](O)c4ccc(c(Cl)c4)O5)O[C@H](CO)[C@@H](O)[C@@H]3O)O[C@@H](C)[C@H]2O)cc1` [Compound 2, N^van --[4-(n-octyl)benzoyl]vancomycin], the MIC in [1] came to 0.5 µg/mL (≈ 0.3 µM); in assay [2] it was 0.5 µg/mL (≈ 0.3 µM); in assay [3] it was 0.5 µg/mL (≈ 0.3 µM); in assay [4], 0.5 µg/mL (≈ 0.3 µM); in assay [5], 8 µg/mL (≈ 4.8 µM); in assay [6], 1 µg/mL (≈ 0.6 µM). The MIC in [7] is 0.25 µg/mL (≈ 0.15 µM); in [8], 0.5 µg/mL (≈ 0.3 µM); in [9], 0.125 µg/mL (≈ 0.075 µM); in [10], 0.125 µg/mL (≈ 0.075 µM); in [11] it was “-- (-- = not active at 128 mcg/ml)”; in assay [12] it was “-- (-- = not active at 128 mcg/ml)”. In addition, the ED50 was 3.78 mg/kg/2 in the assay on Staphylococcus aureus, 0.72 mg/kg/2 in the assay on Streptococcus pneumoniae and 1.0 mg/kg/2 in the assay with Streptococcus pyogenes.
As to `CCCCCCCCc1ccc(C(=O)N(C)C(CC(C)C)C(=O)NC2C(=O)NC(CC(N)=O)C(=O)NC3C(=O)NC4C(=O)NC(C(=O)NC(C(=O)O)c5cc(O)cc(O)c5-c5cc4ccc5O)C(O)c4ccc(c(Cl)c4)Oc4cc3cc(c4OC3OC(CO)C(O)C(O)C3OC3CC(C)(N)C(O)C(C)O3)Oc3ccc(cc3Cl)C2O)cc1` (stereo not drawn) [Compound 3, N^leu --[4-(n-octyl)benzoyl]vancomycin], the MIC in [1] is 2 µg/mL (≈ 1.2 µM); in [2] it was 2 µg/mL (≈ 1.2 µM); in [3], 2 µg/mL (≈ 1.2 µM); in [4], 2 µg/mL (≈ 1.2 µM); in assay [5], 16 µg/mL (≈ 9.61 µM); in [6], 2 µg/mL (≈ 1.2 µM). The MIC in assay [7] amounted to 1 µg/mL (≈ 0.6 µM); in assay [8], 1 µg/mL (≈ 0.6 µM); in assay [9] it was 1 µg/mL (≈ 0.6 µM); in assay [10], 1 µg/mL (≈ 0.6 µM); in [11], 128 µg/mL (≈ 76.8 µM); in assay [12], 64 µg/mL (≈ 38.4 µM).
With `CN[C@H](CC(C)C)C(=O)N[C@H]1C(=O)N[C@@H](CC(N)=O)C(=O)N[C@H]2C(=O)N[C@H]3C(=O)N[C@H](C(=O)N[C@H](C(=O)O)c4cc(O)cc(O)c4-c4cc3ccc4O)[C@H](O)c3ccc(c(Cl)c3)Oc3cc2cc(c3O[C@@H]2O[C@H](CO)[C@@H](O)[C@H](O)[C@H]2O[C@H]2C[C@](C)(NC(=O)c3ccc(OC)cc3)[C@H](O)[C@H](C)O2)Oc2ccc(cc2Cl)[C@H]1O` [Compound 4, N^van --(4-methoxybenzoyl)vancomycin], the MIC in [1] amounted to 2 µg/mL (≈ 1.26 µM); in [2], 2 µg/mL (≈ 1.26 µM); in [3], 2 µg/mL (≈ 1.26 µM); in [4], 2 µg/mL (≈ 1.26 µM); in assay [5], 8 µg/mL (≈ 5.05 µM); in [6], 2 µg/mL (≈ 1.26 µM). Moreover, the MIC is 1 µg/mL (≈ 0.632 µM) in assay [7]; 0.5 µg/mL (≈ 0.316 µM) in [8]; 2 µg/mL (≈ 1.26 µM) in [9]; 8 µg/mL (≈ 5.05 µM) in assay [10]; 128 µg/mL (≈ 80.8 µM) in assay [11]; 128 µg/mL (≈ 80.8 µM) in assay [12].
For `CN[C@H](CC(C)C)C(=O)N[C@H]1C(=O)N[C@@H](CC(N)=O)C(=O)N[C@H]2C(=O)N[C@H]3C(=O)N[C@H](C(=O)N[C@H](C(=O)O)c4cc(O)cc(O)c4-c4cc3ccc4O)[C@H](O)c3ccc(c(Cl)c3)Oc3cc2cc(c3O[C@@H]2O[C@H](CO)[C@@H](O)[C@H](O)[C@H]2O[C@H]2C[C@](C)(NC(=O)CC(C)Oc3ccccc3)[C@H](O)[C@H](C)O2)Oc2ccc(cc2Cl)[C@H]1O` (stereo partly drawn) [Compound 6, N^van --(1-oxo-3-phenoxy-n-butyl)vancomycin], the MIC was determined as 1 µg/mL (≈ 0.621 µM) in assay [1]; 2 µg/mL (≈ 1.24 µM) in [2]; 2 µg/mL (≈ 1.24 µM) in assay [3]; 2 µg/mL (≈ 1.24 µM) in assay [4]; 8 µg/mL (≈ 4.96 µM) in [5]; 2 µg/mL (≈ 1.24 µM) in assay [6]. Moreover, the MIC in assay [7] was 1 µg/mL (≈ 0.621 µM); in assay [8] it was 1 µg/mL (≈ 0.621 µM); in assay [9], 2 µg/mL (≈ 1.24 µM); in [10], 4 µg/mL (≈ 2.48 µM); in [11], “-- (-- = not active at 128 mcg/ml)”; in assay [12], “-- (-- = not active at 128 mcg/ml)”. Besides, the ED50 is 3.7 mg/kg/2 in the assay with Staphylococcus aureus, 1.8 mg/kg/2 in the assay on Streptococcus pneumoniae and 3.2 mg/kg/2 in the assay with Streptococcus pyogenes.
For the compound `CC(C)C[C@H](C(=O)N[C@H]1C(=O)N[C@@H](CC(N)=O)C(=O)N[C@H]2C(=O)N[C@H]3C(=O)N[C@H](C(=O)N[C@H](C(=O)O)c4cc(O)cc(O)c4-c4cc3ccc4O)[C@H](O)c3ccc(c(Cl)c3)Oc3cc2cc(c3O[C@@H]2O[C@H](CO)[C@@H](O)[C@H](O)[C@H]2O[C@H]2C[C@](C)(NC(=O)CSc3ccccc3)[C@H](O)[C@H](C)O2)Oc2ccc(cc2Cl)[C@H]1O)N(C)C(=O)CSc1ccccc1` [Compound 12, N^van,N^leu-di-[1-oxo-2-(phenylthio)ethyl]vancomycin], the MIC in assay [1] stood at 16 µg/mL (≈ 9.14 µM); in [2], 16 µg/mL (≈ 9.14 µM); in [3] it was 32 µg/mL (≈ 18.3 µM); in assay [4], 32 µg/mL (≈ 18.3 µM); in assay [5] it was 128 µg/mL (≈ 73.2 µM); in assay [6] it was 64 µg/mL (≈ 36.6 µM). Besides, the MIC in assay [7] was 8 µg/mL (≈ 4.57 µM); in assay [8] it was 8 µg/mL (≈ 4.57 µM); in [9], 32 µg/mL (≈ 18.3 µM); in assay [10], 64 µg/mL (≈ 36.6 µM); in assay [11], “-- (-- = not active at 128 mcg/ml)”; in [12], “-- (-- = not active at 128 mcg/ml)”.
For the compound `CN[C@H](CC(C)C)C(=O)N[C@H]1C(=O)N[C@@H](CC(N)=O)C(=O)N[C@H]2C(=O)N[C@H]3C(=O)N[C@H](C(=O)N[C@H](C(=O)O)c4cc(O)cc(O)c4-c4cc3ccc4O)[C@H](O)c3ccc(c(Cl)c3)Oc3cc2cc(c3O[C@@H]2O[C@H](CO)[C@@H](O)[C@H](O)[C@H]2O[C@H]2C[C@](C)(N)[C@H](O)[C@H](C)O2)Oc2ccc(cc2Cl)[C@H]1O` [vancomycin, Vancomycin, reference compound], the ED50 in the assay on Staphylococcus aureus was 1.8-3.7 mg/kg/2; in the assay with Streptococcus pneumoniae, 0.90-0.93 mg/kg/2; in the assay with Streptococcus pyogenes it was 0.99-1.1 mg/kg/2.
As to “N^leu --(4-methoxybenzoyl)vancomycin [Compound 5]”, the MIC in [1] came out at 2 µg/mL; in assay [2] it was 2 µg/mL; in [3], 4 µg/mL; in [4] it was 4 µg/mL; in assay [5], 16 µg/mL; in assay [6] it was 4 µg/mL. Further, the MIC in [7] is 2 µg/mL; in [8], 2 µg/mL; in assay [9], 4 µg/mL; in assay [10], 8 µg/mL; in assay [11], “-- (-- = not active at 128 mcg/ml)”; in assay [12], “-- (-- = not active at 128 mcg/ml)”.
For “N^leu -[1-oxo-2-(phenylthio)ethyl]vancomycin [Compound 11]”, the MIC is 4 µg/mL in [1]; 4 µg/mL in assay [2]; 8 µg/mL in assay [3]; 4 µg/mL in [4]; 16 µg/mL in assay [5]; 8 µg/mL in assay [6]. The MIC was 4 µg/mL in assay [7]; 2 µg/mL in [8]; 8 µg/mL in assay [9]; 16 µg/mL in assay [10]; “-- (-- = not active at 128 mcg/ml)” in assay [11]; “-- (-- = not active at 128 mcg/ml)” in assay [12].
